Test results as given in US20150094321A1, “COMBINATION” (GlaxoSmithKline LLC, priority 2009, published 2015).

Experiments:
Experiment in all cases: Cell line proliferation study
Type in all cases: cell-based, human
[1] = test system: SW948; settings: SW948, colon; for IC50: Homo sapiens, 72 hours, read-out: gIC50
Procedure: (§1) In a separate study, combination drug tests with Compounds A and B were conducted using a panel of cell lines from human colon cancers (n=26), lung cancers (n=15) and pancreatic cancers (n=6). Cell lines were obtained from commercial vendors (ATCC and DSMZ). Cell lines were grown in RPMI-1640 supplemented with 2 mM glutamine, 1 mM sodium pyruvate and 10% fetal bovine serum (except for Capan-1 and HuP-T4 which were grown with 20% fetal bovine serum) and maintained at 37° C. and 5% CO2 in a humid incubator. Assays were performed in 384 well microtiter plates with optimum seeding densities for each cell line.
(§2) The test compounds were prepared as 10 mM stocks in 100% DMSO. Further dilutions of the compounds were made in DMSO. Compound A was diluted horizontally in a separate 96 well microtiter plate in rows D-G using a 3-fold dilution series for 10 dilution points. Compound B was similarly diluted horizontally in a 96 well microtiter plate in rows B-E using a 3-fold dilution series for 10 dilution points.
(§3) The two compounds were combined using equal volumes from each drug plate into cell culture media. […] Both Compound A and Compound B were individually titrated in rows B and C (for Compound B) and rows F and G (for Compound A) of the merged drug plate.
(§4) A 1:10 dilution of the drugs was performed in cell culture media prior to addition to the cells.
(§5) The final concentration range for the test compounds was 250 to 0.013 nM for Compound A and 1000 to […] for Compound B. The positive control consisted of culture media with DMSO at 0.1% and cells. The negative control consisted of culture media with DMSO at 0.1%. The cell lines were incubated at 37° C., 5% CO2 in humid air for 72 hours. Cell proliferation was measured using the CellTiter Glo (Promega) reagent according to the manufacturer's protocol. The plates are treated with CellTiter Glo solution and are analyzed for RLU (relative light units) using a Molecular Devices SpectraMax M5 plate reader.
(§6) The percent intensity values were used in model 205 of XLfit (IDBS, Inc.) in Microsoft Excel to calculate gIC50 values using a 4 parameter logistical fit. The midpoint of the growth window (the gIC50) falls half way between the number of cells at the time of compound addition (T=0) and the growth of control cells treated with DMSO at 72 hrs. The number of cells at time zero (T0) is divided from the intensity value at the bottom of the response curve (Ymin) to generate a measure for cell death (Ymin/T0). A value below 1 for Ymin/T0 indicates stronger potency to induce cell death with the treatment when compared to higher values.
(§7) 1. Excess over Highest Single Agent (EOHSA)—This was calculated as described above (Borisy et al, 2003; FDA 21 CFR 300.50) 2. Bliss synergy—A second criterion often used to determine combination synergy is evaluating the excess inhibition over Bliss independence or “additivity” (Bliss and Mexico, 1939). The model assumes a combined response of the two compounds independently using the following:
(§8) Where Ea is the effect (or percent inhibition) of Compound A and Eb is the effect of Compound B. The resulting effect of the combination of the two compounds is compared to their predicted additivity by Bliss and a synergy score is generated for each dose along the response curve. 3. Combination Index (CI)—A third criterion traditionally used for the evaluation of synergy is Combination Index (CI) derived from the Chou and Talalay (1984). The following equation is a model used for compounds that behave with different mechanisms of action (mutually non-exclusive formula). This was calculated as described above.
(§9) For EOHSA and Bliss Synergy measures, a score is generated for each dose along the response curve. These scores reflect the percentage over the highest agent (EOHSA) or percentage greater than Bliss additivity, depending on which metric is being interpreted. […]

[2] = test system: LS174T; settings: colon; for IC50: Homo sapiens, 72 hours, read-out: gIC50
Procedure: as §1, §2, §3, §4, §5, §6, §7, §8, §9

[3] = test system: HT29; settings: HT29, colon; for IC50: Homo sapiens, HT-29, 72 hours, read-out: gIC50
Procedure: as §1, §2, §3, §4, §5, §6, §7, §8, §9

[4] = test system: NCIH2122; settings: NCIH2122, lung; for IC50: Homo sapiens, NCI-H2122, 72 hours, read-out: gIC50
Procedure: as §1, §2, §3, §4, §5, §6, §7, §8, §9

[5] = test system: NCIH1792; settings: NCIH1792, lung; for IC50: Homo sapiens, NCI-H1792, 72 hours, read-out: gIC50
Procedure: as §1, §2, §3, §4, §5, §6, §7, §8, §9

[6] = test system: LS1034; settings: LS1034, colon; for IC50: Homo sapiens, LS-1034, 72 hours, read-out: gIC50
Procedure: as §1, §2, §3, §4, §5, §6, §7, §8, §9

[7] = test system: KM12; settings: KM12, colon; for IC50: Homo sapiens, 72 hours, read-out: gIC50
Procedure: as §1, §2, §3, §4, §5, §6, §7, §8, §9

[8] = test system: SW837; settings: SW837, colon; for IC50: Homo sapiens, 72 hours, read-out: gIC50
Procedure: as §1, §2, §3, §4, §5, §6, §7, §8, §9

[9] = test system: T84; settings: T84, colon; for IC50: Homo sapiens, 72 hours, read-out: gIC50
Procedure: as §1, §2, §3, §4, §5, §6, §7, §8, §9

[10] = test system: YAPC; settings: pancreas; for IC50: Homo sapiens, 72 hours, read-out: gIC50
Procedure: as §1, §2, §3, §4, §5, §6, §7, §8, §9

[11] = test system: SW480; settings: SW480, colon; for IC50: Homo sapiens, 72 hours, read-out: gIC50
Procedure: as §1, §2, §3, §4, §5, §6, §7, §8, §9

[12] = test system: SW620; settings: SW620, colon; for IC50: Homo sapiens, SW-620, 72 hours, read-out: gIC50
Procedure: as §1, §2, §3, §4, §5, §6, §7, §8, §9

[13] = test system: SW403; settings: SW403, colon; for IC50: Homo sapiens, SW-403, 72 hours, read-out: gIC50
Procedure: as §1, §2, §3, §4, §5, §6, §7, §8, §9

[14] = test system: SW1990; settings: SW1990, pancreas; for IC50: Homo sapiens, 72 hours, read-out: gIC50
Procedure: as §1, §2, §3, §4, §5, §6, §7, §8, §9

[15] = test system: NCIH1563; settings: NCIH1563, lung; for IC50: Homo sapiens, NCI-H1563, 72 hours, read-out: gIC50
Procedure: as §1, §2, §3, §4, §5, §6, §7, §8, §9

IC50 [1] [nM]	IC50 [3] [nM]	IC50 [8] [nM]	Compound	Ymin/T0 [1]	IC50 [2] [nM]	Ymin/T0 [2]	Ymin/T0 [3]	IC50 [4] [nM]	Ymin/T0 [4]	IC50 [5] [nM]	Ymin/T0 [5]	IC50 [6] [nM]	Ymin/T0 [6]	IC50 [7] [nM]	Ymin/T0 [7]	Ymin/T0 [8]	IC50 [9] [nM]	Ymin/T0 [9]	IC50 [10] [nM]	Ymin/T0 [10]	other results
185	3.6	153	CC(=O)Nc1cccc(-n2c(=O)n(C3CC3)c(=O)c3c(Nc4ccc(I)cc4F)n(C)c(=O)c(C)c32)c1 [Compound A, N-{3-[3-cyclopropyl-5-(2-fluoro-4-iodo-phenylamino)-6,8-dimethyl-2,4,7-trioxo-3,4,6,7-tetrahydro-2H-pyrido[4,3-d]pyrimidin-1-yl]phenyl}acetamide]	27.87	81.4	18.26	11.99	30	−11.8	42	2.8	37	2.87	28.7	19.1	25.58	139	12.44	> 250	59.4	IC50 [11]: 326 nM; Ymin/T0 [11]: 29.37; IC50 [12]: 15.2 nM; Ymin/T0 [12]: 15.46; IC50 [13]: 4.6 nM; Ymin/T0 [13]: 3.02; IC50 [14]: 94 nM; Ymin/T0 [14]: 17.1; IC50 [15]: > 250 nM; Ymin/T0 [15]: 26.6
609	780	> 1000	Cn1ncc(Cl)c1-c1cc(C(=O)N[C@H](CN)Cc2ccc(F)c(F)c2)oc1Cl [Compound B, N-{(1S)-2-amino-1-[(3,4-difluorophenyl)methyl]ethyl}-5-chloro-4-(4-chloro-1-methyl-1H-pyrazol-5-yl)-2-furancarboxamide]	20.46	> 1000	19.70	11.64	> 1000	11.4	> 1000	26.0	> 1000	−0.67	928	13.9	63.88	427	−5.58	> 1000	55.2	IC50 [11]: > 1000 nM; Ymin/T0 [11]: 11.87; IC50 [12]: > 1000 nM; Ymin/T0 [12]: 76.65; IC50 [13]: 74.3 nM; Ymin/T0 [13]: 8.82; IC50 [14]: > 1000 nM; Ymin/T0 [14]: 36.8; IC50 [15]: 65 nM; Ymin/T0 [15]: 27.6
